One series has as its system 5 Phytophthora species. In kind it is cell-based. The following applies: 200.0 ppm in V-8 agar, 22° C., 6 days.
The test system of series [1] is Puccinia recondita var. tritici. Kind of series: Wheat leaf rust control on sprayed wheat seedlings (Example 79). The class given is in vivo. As to conditions: Puccinia recondita, 168 h; for pest or weed control at 100 ppm: 100 ppm spray, day before inoculation. The essentials:
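Wheat seedlings were sprayed to run-off with 100 ppm compound suspended in water with 6% acetone and 250 ppm TREM 014 surfactant. Next day they were inoculated with Puccinia recondita var. tritici spores and held 24 h at saturated humidity, 20°. Rust pustules were rated after a further 7 days in a growth room.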

Another series relates to Cercospora arachidicola. Kind of series: Peanut early leafspot control on sprayed peanut seedlings (Example 84). As to conditions: Mycosphaerella arachidis, 360 h, 100 ppm spray, day before inoculation; read-out: % Control Peanut Easly Leafspot. The class given is in vivo.
For another series, the system named is Venturia inaequalis. Put plainly: Apple scab control on sprayed apple seedlings (Example 82). In kind it is in vivo. As to conditions: Venturia inaequalis; for pest or weed control at 100 ppm: 100 ppm spray, day before inoculation.
In a further series the test system is bean seedlings. Put plainly: Phytotoxicity on bean seedlings (Example 85). The class given is in vivo. Also on record: key: G = growth reduction; H = hormonal effects. As to conditions: 80 ppm spray.
For the next series, the system named is Erysiphe cichoracearum. Kind of series: Cucumber powdery mildew control on sprayed cucumber seedlings (Example 80). The class given is in vivo. As to conditions: Golovinomyces cichoracearum, 168 h; for pest or weed control at 100 ppm: 100 ppm spray, day before inoculation.
For another series, the system named is Monilinia fructicola. Kind of series: Stone fruit brown rot control on dipped canned peach halves (Example 86). The following applies: 120 h, 100 ppm dip, percent growth inhibition of colonies after five days. An outline of the steps: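 Canned peach halves were dipped 3 min in a 100 ppm compound suspension (5% acetone, 700 ppm TREM 014 surfactant in water) and air-dried. Each was inoculated with two Monilinia fructicola mycelium pieces and incubated 5 days in sterile containers. Colony radii were measured, and percent control was expressed as growth inhibition versus untreated peaches.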

Series [2] has as its system Pythium aphanadermatum. Kind of series: Pythium control on cotton, seed coating (Example 91). In kind it is in vivo. As to conditions: 168 h; for pest or weed control at 2 g/kg seed: 2 gm/kg seed. An outline of the steps: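 Cotton seeds coated with formulated compound at 2 gm/kg seed, air dried, and planted in soil amended with Pythium aphanadermatum, sand and corn meal. Held 1 week at room temperature before disease rating.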

Another series concerns cucumber seedlings. Put plainly: Phytotoxicity on cucumber seedlings (Example 80). The class given is in vivo. Also on record: key: G = growth reduction; H = hormonal effects. As to conditions: 100 ppm spray. An outline of the steps:
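Cucumber seedlings sprayed to run-off with 100 ppm compound suspension (6% acetone, 250 ppm TREM 014 surfactant), inoculated next day with Erysiphe cichoracearum spores, then held 7 days in a growth room before disease rating. Phytotoxicity scored as growth reduction or hormonal effects.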

The next series relates to Pyricularia oryzae. Put plainly: whole plant or invertebrate. The class given is in vivo. The following applies: Pyricularia oryzae, 168 h, read-out: % Control of Rice Blast, 100 ppm spray, day before inoculation.
A further series relates to Erysiphe graminis. Put plainly: Barley powdery mildew control on sprayed barley seedlings (Example 81). The class given is in vivo. As to conditions: Blumeria graminis, 168 h; for pest or weed control at 100 ppm: 100 ppm spray, day before inoculation. The essentials:
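Compounds at 100 ppm in water with 6% acetone and 250 ppm surfactant were sprayed to run-off on barley seedlings. Plants were inoculated with Erysiphe graminis spores the next day. Disease was rated after 7 days in a growth room.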

A further series concerns Helminthosporium maydis. Put plainly: Southern corn leaf blight control on sprayed corn seedlings (Example 83). In kind it is in vivo. The following applies: Bipolaris maydis, 192 h, 100 ppm spray, day before inoculation. The essentials: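 Compounds in 6% acetone at 100 ppm in water with 250 ppm TREM 014 surfactant, sprayed to run-off on corn seedlings; next day inoculated with spore suspension. 24 h at saturated humidity and 20°, then 7 days in growth room before disease rating; phytotoxicity scored as growth reduction.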

The next series deals with Phytophthora infestans. Kind of series: whole plant or invertebrate. In kind it is in vivo. As to conditions: Phytophthora infestans, in Solanum lycopersicum, 168 h, read-out: % Control of Tomato Late Blight, 100 ppm spray, day before inoculation.
A further series deals with Rhizoctonia solani. Put plainly: Rice sheath blight control on sprayed rice seedlings (Example 87). The class given is in vivo. The following applies: Rhizoctonia solani, 168 h, 100 ppm spray, day before inoculation. An outline of the steps:
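Rice seedlings were sprayed to run-off with 100 ppm compound suspended in water with 6% acetone and 250 ppm TREM 014 surfactant. They were inoculated next day with bran plus R. solani mycelium. Sheath blight was rated after 7 days in a growth room.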

The subject of the next series is corn seedlings. Kind of series: Phytotoxicity on corn seedlings (Example 83). As to conditions: 100 ppm spray. Also on record: key: G = growth reduction; H = hormonal effects. In kind it is in vivo. The procedure:
The compounds of the previous examples were again dissolved in acetone in an amount equal to 6% of the final volume and then suspended at a concentration of 100 ppm in purified water containing 250 ppm of the surfactant TREM 014 (polyhydric alcohol esters). These suspensions were sprayed to the point of run-off on corn seedlings. The following day, the plants were inoculated with a spore suspension of Helminthosporium maydis, causal agent of southern corn leaf blight, and incubated in a saturated humidity chamber at 20° for 24 hours and then in a growth room for an additional 7 days, when disease ratings were made. Treated plants from successful treatments had few or no lesions while the untreated plants had numerous lesions on each leaf. Phytotoxicity expressed as growth reduction was observed on some of the plants in association with disease control.

Series [3] relates to Pythium aphanadermatum. Kind of series: Pythium control on corn, seed coating (Example 92). The class given is in vivo. As to conditions: 504 h, 2 gm/kg seed. An outline of the steps: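 Formulated compounds were coated onto corn seeds at 2 gm/kg seed, air-dried and sown in soil infested with Pythium aphanadermatum at a rate lethal to most untreated seeds. Seeds were held 2 weeks at 49° F, then 1 week at 70° F, before disease rating.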

Another series has as its system apple seedlings. Kind of series: Phytotoxicity on apple seedlings (Example 82). The class given is in vivo. Set-up: key: G = growth reduction; C = chlorosis; B = burn. The procedure:
These suspensions were sprayed to the point of run-off on apple seedlings. The following day, the plants were inoculated with a spore suspension of the fungus Venturia inaequalis, causal agent of apple scab, and incubated in a saturated humidity chamber at 20° for 24 hours and then in a growth room for an additional 10-12 days. Treated plants from successful treatments had fewer apple scab lesions when compared to untreated plants which were covered with scab lesions. Phytotoxicity expressed as growth reduction was observed on some of the plants in association with disease control.

As for `C[Si](C)(Cn1cncn1)c1ccc(Cl)cc1Cl` [(2,4-Dichlorophenyl)dimethyl(1H-1,2,4-triazol-1-ylmethyl)silane], the “No. of 5 Phytophthora species controlled in vitro” value in the series on 5 Phytophthora species is 0. Besides, the pest or weed control at 100 ppm in series [1] was determined as 90%; in the series on Cercospora arachidicola, 100%; in the series with Venturia inaequalis it was 100%; with Erysiphe cichoracearum, 100%; in the series on Pyricularia oryzae, 0%; with Erysiphe graminis, 100%. Besides, the pest or weed control at 100 ppm in the series on Helminthosporium maydis was 90%; with Phytophthora infestans it was 0%; with Rhizoctonia solani it was 0%. Besides, in the series on bean seedlings, the Phytotoxicity on bean entry is reported as “G”. The same compound had an inhibition of growth at 100 µg/mL in the series on Monilinia fructicola of 100%. Also, the pest or weed control at 2 g/kg seed with Pythium aphanadermatum [2] is 0%. Besides, the Phytotoxicity on cucumber result with cucumber seedlings is on record as “H”.
For the compound `C[Si](C)(Cn1cncn1)c1ccc(Cl)cc1` [(4-Chlorophenyl)dimethyl(1H-1,2,4-triazol-1-ylmethyl)silane], the pest or weed control at 100 ppm was 100% in [1]; 90% in the series on Cercospora arachidicola; 100% in the series on Venturia inaequalis; 100% in the series with Erysiphe cichoracearum; 0% in the series with Pyricularia oryzae; 0% in the series with Helminthosporium maydis. The pest or weed control at 100 ppm in the series with Phytophthora infestans is 0%. The Phytotoxicity on corn result with corn seedlings is given as “G”. The compound also had a pest or weed control at 0.5 g/kg seed in the series with Pythium aphanadermatum [2] (0.5 gm/kg seed) of 53%. The same compound came in with a pest or weed control at 2 g/kg seed in the series with Pythium aphanadermatum [3] of 8%.
Consider `C[Si](C)(Cn1cncn1)c1ccc(F)cc1` [Dimethyl(4-fluorophenyl)(1H-1,2,4-triazol-1-ylmethyl)silane], for which the pest or weed control at 100 ppm in [1] is 100%; in the series on Cercospora arachidicola, 50%; in the series on Venturia inaequalis, 80%; in the series on Erysiphe cichoracearum, 100%; in the series with Pyricularia oryzae, 0%; in the series with Helminthosporium maydis, 90%. Moreover, the pest or weed control at 100 ppm in the series on Phytophthora infestans and with Rhizoctonia solani was 0% each time. Besides, in the series with apple seedlings (100 ppm spray), the Phytotoxicity on apple entry is reported as “C”. Further, the Phytotoxicity on cucumber entry in the series with cucumber seedlings is given as “G”.
`CCCCCCCCCCCC[Si](C)(C)Cn1cncn1` [Dodecyl(dimethyl)(1H-1,2,4-triazol-1-ylmethyl)silane]: the pest or weed control at 200 ppm (in series [1] (applied at 200 ppm); in the series with Erysiphe graminis (applied at 200 ppm)) was 100% each time. For the same compound, the Phytotoxicity on apple entry in the series on apple seedlings (applied at 400 ppm) is reported as “B”. Besides, the results for the pest or weed control at 400 ppm in the series with Venturia inaequalis (applied at 400 ppm) and in the series with Erysiphe cichoracearum (applied at 400 ppm) were 40% and 60%, respectively. Moreover, in the series with Helminthosporium maydis, the pest or weed control at 100 ppm is 0%.
With `C[Si](Cn1cncn1)(c1ccc(Cl)cc1)c1ccc(Cl)cc1` [bis(4-Chlorophenyl)methyl(1H,-1,2,4-triazol-1-ylmethyl)silane], in the series with 5 Phytophthora species, the “No. of 5 Phytophthora species controlled in vitro” value turned out to be 0. Further, the pest or weed control at 100 ppm in [1] was found to be 90%; in the series with Cercospora arachidicola, 100%; in the series with Venturia inaequalis, 100%; in the series with Erysiphe cichoracearum, 100%; in the series with Pyricularia oryzae it was 90%; with Erysiphe graminis, 100%. Further, the pest or weed control at 100 ppm with Helminthosporium maydis was found to be 80%; in the series on Phytophthora infestans, 0%; in the series with Rhizoctonia solani it was 0%. Further, the Phytotoxicity on bean entry in the series on bean seedlings was “G”. 100 µg/mL produced 95% inhibition of growth in the series with Monilinia fructicola. This compound displayed a pest or weed control at 2 g/kg seed in the series with Pythium aphanadermatum [2] of 0%.

In general, inhibition of growth refers to the drop in the measured response relative to a control, in per cent.

The values above are taken from US4510136A (priority 1983, dated 1985).
